Where two headings read alike, the source gives them in different places.
How the values were obtained:
[1] = tested on: IL-17 production in human blood; experiment: Effect on IL-17 production in human blood; assay type: cell-based; details: 72 h, 10 μM test compound, IL-23 and Dynabeads stimulation, 3 days, read-out: Percent Inhibition at 10 μM (IL-17 production)
Procedure: Effect on IL-17 Production in Human Blood
The inhibitory effect of the test compound on IL-17 production in human blood was evaluated as follows. First, 150 μL of peripheral blood collected from healthy individuals using heparinized vacuum blood collection tubes was dispensed into each well of a 96-well plate (Corning), and 45 μL of RPMI 1640 medium (Gibco) containing 10% fetal bovine serum (FBS, Hyclone) and 30 μL of the test compound diluted with the medium was added to each well. The plate was then cultured for 30 min at 37° C. Cells were subsequently stimulated by adding 30 μL of 100 ng/mL human IL-23 (R&D) and 45 μL of Dynabeads Human (Invitrogen) to each well and culturing the plate for 3 days at 37° C. In wells without stimulation, 75 μL of RPMI 1640 medium containing 10% FBS was added instead of the IL-23 and Dynabeads solution. After culturing for 3 days, the culture supernatant was collected, and the amount of IL-17 in the supernatant was measured using an IL-17 ELISA kit (R&D).
The results of the above-described measurements (percent inhibition of IL-17 production with 10 μM of the test compound) are shown in Table 4.

RORγt [2] = target: T1, RORγt (Homo sapiens, UniProt P51449); experiment: Jurkat reporter test (human IL-17 ROR response element luciferase, RORγt vector); assay type: cell-based; details: read-out: Luminescence level inhibitory rate at test compound 3 μM (%)
T1 sequence (P51449 1-497 isoform P51449-2): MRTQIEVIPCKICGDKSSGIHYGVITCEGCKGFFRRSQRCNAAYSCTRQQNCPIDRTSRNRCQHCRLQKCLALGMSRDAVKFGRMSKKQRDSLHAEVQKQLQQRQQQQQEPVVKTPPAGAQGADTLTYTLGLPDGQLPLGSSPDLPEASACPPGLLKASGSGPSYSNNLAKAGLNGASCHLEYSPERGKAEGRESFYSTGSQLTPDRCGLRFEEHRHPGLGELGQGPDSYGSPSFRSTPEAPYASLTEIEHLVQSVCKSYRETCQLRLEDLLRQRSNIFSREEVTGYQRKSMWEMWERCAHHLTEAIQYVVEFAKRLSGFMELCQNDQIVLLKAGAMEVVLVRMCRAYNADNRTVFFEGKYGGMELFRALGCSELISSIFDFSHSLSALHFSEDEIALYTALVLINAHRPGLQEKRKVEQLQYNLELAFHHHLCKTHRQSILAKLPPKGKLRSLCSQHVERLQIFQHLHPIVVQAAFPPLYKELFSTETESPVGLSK
Procedure, shortened: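 Luminescence (Bright-Glo, 10 min, RT) was measured after overnight compound treatment of electroporated Jurkat cells (1350 V, 10 ms interval, 3 pulses). The reaction medium was RPMI with 10% lipid-reduced FCS, 10 mM HEPES (pH 7.5) and 5 μM lovastatin.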

IL-17A gene expression = experiment: Effect on IL-23-induced cytokine expression in mice; assay type: in vivo, Balb/c mice; details: Mus musculus, 30 min before and 8 hr after IL-23, versus the negative control group, read-out: Percent inhibition of IL-17A gene expression; for inhibition in vivo at 10 mg/kg: dose 10 mg/kg oral; for inhibition in vivo at 30 mg/kg: dose 30 mg/kg oral
Procedure: Effect on IL-23-induced Cytokine Expression in Mice
A mouse IL-23 solution (500 ng/10 μL, prepared by Takeda Pharmaceutical Company Limited) or PBS (10 μL, negative control group) was administered intradermally in the ear of Balb/c mice (Charles River Japan, male, 7 weeks old). Twenty-four hr after administration, the ear was resected under isoflurane anesthesia. The test compound was suspended in 0.5% methylcellulose and administered orally 30 min before and 8 hr after IL-23 administration.
RNA extraction from the ear tissue and quantitative PCR were performed as follows. Specifically, ear tissue 5 mm in diameter was punched from an area of the resected ear centering on the IL-23 injection site, and the tissue was immersed in RNAlater (QIAGEN) for at least 18 hr. The RNAlater-treated ear tissue was homogenized in 350 μL of RLT buffer (RNeasy mini kit, QIAGEN) and treated (55° C., 10 min) with Proteinase K (QIAGEN). Total RNA was then extracted according to the RNeasy mini kit protocol. The RNA thus obtained was then reverse transcribed into cDNA using the High-Capacity RNA-to-cDNA kit (Applied Biosystems), and the amount of each cytokine expressions was measured by real-time PCR (Viia7™, Applied Biosystems). The PCR buffer used was TaqMan Fast Advanced Master Mix (Applied Biosystems), and TaqMan Gene Expression Assays (Applied Biosystems) Mm00439618 ml (IL-17A) and 4352341E (β-actin) were used for cytokine gene detection. The IL-17A gene expression level was normalized to the R-actin gene expression level, and the percent inhibition of IL-17A gene expression with the test compound was then calculated.
The results obtained with the above-described method (percent inhibition of IL-17A gene expression with oral administration of the test compound) are shown in Table 5.

RORγt [3] = target: T1, RORγt; experiment: Cofactor recruitment test (Alpha Screen, biotinylated SRC-1 peptide); assay type: biochemical; details: read-out: Signal value inhibitory rate at test compound 1 μM (%)
Procedure: Cofactor Recruitment Test
Cofactor recruitment test was performed by Alpha Screen (Histidine Detection Kit, PerkinElmer) method. First, a test compound was diluted with an assay buffer (50 mM Tris-HCl (pH 7.5), 50 mM KCl, 1 mM DTT, 0.1% BSA) and added to a 384 well plate by 5 μL. […] The mixture was stood in a dark place for 1 hr, and the signal value was measured by Envision (PerkinElmer).

RORγt [4] = target: T1, RORγt; experiment: RORγt binding test using fluorescent-labeled synthetic ligand (TR-FRET); details: read-out: Binding inhibitory rate of fluorescent-labeled synthetic ligand to RORγt at test compound 1 μM (%)
Procedure, shortened: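 His-tagged RORγt (diluted to 240 nM) with compound, then fluorescent synthetic ligand (diluted to 12 μM), 20 min at room temperature, followed by Tb anti-His antibody (diluted to 8 nM), 20 min.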

RORγt [5] = target: T1, RORγt; experiment: RORγt binding test using fluorescent-labeled cholesterol (TR-FRET); details: read-out: Binding inhibitory rate of fluorescent-labeled cholesterol to RORγt at test compound 1 μM (%)
Procedure, shortened: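 After 20 min at room temperature with His-tagged RORγt and BODIPY-cholesterol in pH 7.5 Tris buffer (NaCl, DTT, BSA), compound wells got terbium anti-His antibody for another 20 min. Time-resolved FRET was read with excitation 320 nm, emission 520 nm and a 100 µs delay.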

[6] = test compound 3 μM, Jurkat cells

inhibition at 1 µM (RORγt [5]) [%] | inhibition at 3 µM (RORγt [2]; [6]) [%] | Compound | inhibition at 10 µM [1] [%] | inhibition at 3 µM (RORγt [2]; Jurkat) [%] | inhibition in vivo at 10 mg/kg (IL-17A gene expression) [%] | inhibition at 1 µM (RORγt [3]) [%] | inhibition at 1 µM (RORγt [4]) [%] | inhibition in vivo at 30 mg/kg (IL-17A gene expression) [%] | inhibition in vivo at 100 mg/kg (IL-17A gene expression; dose 100 mg/kg oral) [%]
 |  | COc1ccc2c(c1)CCN(C(=O)N1CC(CC(=O)O)C1)[C@H]2C(=O)Nc1cc(F)c([Si](C)(C)C)c(F)c1 [Example 260, (1-(((1R)-1-((3,5-difluoro-4-(trimethylsilyl)phenyl)carbamoyl)-6-methoxy-3,4-dihydroisoquinolin-2(1H)-yl)carbonyl)azetidin-3-yl)acetic acid] | 89 | 101 | 76 | 95 | 102 |  | 
 |  | CCOc1ccc2c(c1)CCN(C(=O)CCCC(=O)O)[C@H]2C(=O)Nc1cc(F)c([Si](C)(C)C)c(F)c1 [Example 179, 5-((1R)-1-((3,5-difluoro-4-(trimethylsilyl)phenyl)carbamoyl)-6-ethoxy-3,4-dihydroisoquinolin-2(1H)-yl)-5-oxopentanoic acid] | 82 | 102 |  | 94 | 101 | 95 | 
 |  | CCOc1ccc2c(c1)CCN(C(=O)CC[C@H](C)C(=O)O)[C@H]2C(=O)Nc1cc(F)c2c(c1)CCC2(C)C [Example 266, (2S)-5-((1R)-6-ethoxy-1-((7-fluoro-1,1-dimethyl-2,3-dihydro-1H-inden-5-yl)carbamoyl)-3,4-dihydroisoquinolin-2(1H)-yl)-2-methyl-5-oxopentanoic acid] | 88 |  |  |  |  |  | 
 |  | C[Si](C)(C)c1c(F)cc(NC(=O)[C@H]2c3ccc4c(c3CCN2C(=O)N2CC(CC(=O)O)C2)OCO4)cc1F [Example 272, (1-(((6R)-6-((3,5-difluoro-4-(trimethylsilyl)phenyl)carbamoyl)-8,9-dihydro[1,3]dioxolo[4,5-f]isoquinolin-7(6H)-yl)carbonyl)azetidin-3-yl)acetic acid] | 93 | 100 | 86 | 101 | 102 |  | 
103 | 99 | COc1ccc2c(c1)CCN(C(=O)c1cc(O)no1)[C@H]2C(=O)Nc1cc(F)c2c(c1)CCC2(C)C [Example 68, (1R)-N-(7-fluoro-1,1-dimethyl-2,3-dihydro-1H-inden-5-yl)-2-((3-hydroxy-1,2-oxazol-5-yl)carbonyl)-6-methoxy-1,2,3,4-tetrahydroisoquinoline-1-carboxamide] |  |  |  | 73 | 101 |  | 90
101 | 101 | COCc1ccc2c(c1)CCN(C(=O)CCCC(=O)O)[C@H]2C(=O)Nc1cc(F)c(C(C)(C)C)c(F)c1 [Example 144, 5-((1R)-1-((4-tert-butyl-3,5-difluorophenyl)carbamoyl)-6-(methoxymethyl)-3,4-dihydroisoquinolin-2 (1H)-yl)-5-oxopentanoic acid] | 86 |  |  | 97 | 101 |  | 
 |  | COc1ccc2c(n1)CCN(C(=O)N1CC(CC(=O)O)C1)[C@H]2C(=O)Nc1cc(F)c2c(c1)CCC2(C)C [Example 273, (1-(((5R)-5-((7-fluoro-1,1-dimethyl-2,3-dihydro-1H-inden-5-yl)carbamoyl)-2-methoxy-7,8-dihydro-1,6-naphthyridin-6(5H)-yl)carbonyl)azetidin-3-yl)acetic acid] | 89 |  | 77 |  |  |  | 
 |  | COc1ccc2c(c1)CCN(C(=O)CCCC(=O)O)[C@H]2C(=O)Nc1cc(F)c([Si](C)(C)C)c(F)c1 [Example 82, 5-((1R)-1-((3,5-difluoro-4-(trimethylsilyl)phenyl)carbamoyl)-6-methoxy-3,4-dihydroisoquinolin-2(1H)-yl)-5-oxopentanoic acid] | 75 |  | 85 |  |  |  | 

Compound | inhibition at 1 µM (RORγt [5]) [%] | inhibition at 3 µM (RORγt [2]; [6]) [%] | inhibition at 10 µM [1] [%] | inhibition at 3 µM (RORγt [2]; Jurkat) [%] | inhibition in vivo at 10 mg/kg (IL-17A gene expression) [%] | inhibition at 1 µM (RORγt [3]) [%] | inhibition at 1 µM (RORγt [4]) [%] | inhibition in vivo at 30 mg/kg (IL-17A gene expression) [%] | inhibition in vivo at 100 mg/kg (IL-17A gene expression; dose 100 mg/kg oral) [%]
COc1ccc2c(n1)CCN(C(=O)CCCC(=O)O)[C@H]2C(=O)Nc1ccc([Si](C)(C)C)c(F)c1 [Example 140, 5-((5R)-5-((3-fluoro-4-(trimethylsilyl)phenyl)carbamoyl)-2-methoxy-7,8-dihydro-1,6-naphthyridin-6(5H)-yl)-5-oxopentanoic acid] | 100 |  | 91 | 102 |  | 95 | 101 | 90 | 

From patent US10053468B2, “Heterocyclic compound” (TAKEDA PHARMACEUTICAL COMPANY LIMITED, priority 2013, dated 2018)
